From patent US10550112B2, “Pyrimidines as EGFR inhibitors and methods of treating disorders” (Dana-Farber Cancer Institute, Inc., priority 2015, dated 2020) come the findings set out here.

Structures are written as SMILES.

Holding throughout (type): cell-based, Murine
The target of assay [1] is EGFR wild type Ba/F3 cell line (Homo sapiens, UniProt P00533, cells depend on it, form not given). As to the kind of experiment: Ba/F3 cell proliferation MTS assay, EGFR wild type. As to conditions: 72 hours.
Assay [2] deals with EGFR InsGY Ba/F3 cell line (Homo sapiens, UniProt P00533, DELINS770-770GY, cells depend on it). As to the kind of experiment: Ba/F3 cell proliferation MTS assay, EGFR InsGY. The settings on record: EGFR InsGY (D770delinsGY) Ba/F3 cells, 72 hours.
Chain of EGFR InsGY Ba/F3 cell line (P00533 with tags, fused parts or gaps DELINS770-770GY): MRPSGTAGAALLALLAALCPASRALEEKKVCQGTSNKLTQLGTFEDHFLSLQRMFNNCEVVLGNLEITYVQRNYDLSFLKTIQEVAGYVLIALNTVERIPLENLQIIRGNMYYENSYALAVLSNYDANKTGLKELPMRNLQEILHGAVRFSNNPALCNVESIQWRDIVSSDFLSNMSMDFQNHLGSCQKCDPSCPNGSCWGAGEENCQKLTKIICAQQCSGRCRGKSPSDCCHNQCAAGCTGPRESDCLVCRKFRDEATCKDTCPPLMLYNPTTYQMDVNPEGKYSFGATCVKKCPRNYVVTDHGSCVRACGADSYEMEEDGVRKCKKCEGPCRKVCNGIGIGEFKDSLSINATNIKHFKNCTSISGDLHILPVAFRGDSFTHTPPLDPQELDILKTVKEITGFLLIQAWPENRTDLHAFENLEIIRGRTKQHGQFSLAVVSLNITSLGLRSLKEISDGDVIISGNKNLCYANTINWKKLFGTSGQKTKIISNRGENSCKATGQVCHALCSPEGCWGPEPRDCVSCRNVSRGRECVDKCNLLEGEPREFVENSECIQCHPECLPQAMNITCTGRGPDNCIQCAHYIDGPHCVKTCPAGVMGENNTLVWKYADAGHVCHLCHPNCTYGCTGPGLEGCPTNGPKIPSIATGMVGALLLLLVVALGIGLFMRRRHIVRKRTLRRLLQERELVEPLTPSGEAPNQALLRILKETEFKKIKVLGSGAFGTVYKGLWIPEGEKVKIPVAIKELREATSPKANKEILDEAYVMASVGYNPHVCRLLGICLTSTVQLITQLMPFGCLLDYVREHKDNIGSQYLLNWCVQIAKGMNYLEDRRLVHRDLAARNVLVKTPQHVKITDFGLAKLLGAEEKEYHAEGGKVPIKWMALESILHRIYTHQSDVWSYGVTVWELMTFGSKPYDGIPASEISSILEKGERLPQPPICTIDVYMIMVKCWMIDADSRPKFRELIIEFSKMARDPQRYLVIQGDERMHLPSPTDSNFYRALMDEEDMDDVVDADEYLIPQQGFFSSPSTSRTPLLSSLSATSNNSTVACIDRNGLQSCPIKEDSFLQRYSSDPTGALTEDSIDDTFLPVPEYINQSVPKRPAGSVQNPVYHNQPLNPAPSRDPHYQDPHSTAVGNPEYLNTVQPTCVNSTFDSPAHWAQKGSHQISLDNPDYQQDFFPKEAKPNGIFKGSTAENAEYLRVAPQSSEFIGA
Description: (§1) Different EGFR exon 20 insertion mutations were introduced via site directed mutagenesis into full length EGFR using the Quick Change Site-Directed Mutagenesis kit (Stratagene; La Jolla, Calif.) according to the manufacturer's instructions. All constructs were confirmed by DNA sequencing. The constructs were shuttled into the retroviral vector JP1540 using the BD Creator™ System (BD Biosciences). […] Stable clones were obtained by selection in puromycin (2 μg/ml) and growth in IL-3 free media.
(§2) Murine Ba/F3 cells engineered to express mutant and wild type EGFR or HER2 protein were used to perform single drug screens. Cell viability was assessed after 72 hours of compound exposure using the colorimetric cell proliferation MTS assay kit (Promega).
(§3) The curves were fitted using a non-linear regression model with a sigmoidal dose response.
Assay [3] has as its target HER2 wild type Ba/F3 cell line (Homo sapiens, UniProt P04626). The assay is described as follows: Ba/F3 cell proliferation MTS assay, HER2 wild type. The settings on record: HER2 wild type Ba/F3 cells, 72 hours.
Description: as §2, §3
The target in assay [4] is EGFR InsSVD Ba/F3 cell line (Homo sapiens, UniProt P00533, DUP768-770, cells depend on it). As to the kind of experiment: Ba/F3 cell proliferation MTS assay, EGFR InsSVD. As to conditions: EGFR InsSVD (D770_N771insSVD) Ba/F3 cells, 72 hours.
Chain of EGFR InsSVD Ba/F3 cell line (P00533 with tags, fused parts or gaps DUP768-770): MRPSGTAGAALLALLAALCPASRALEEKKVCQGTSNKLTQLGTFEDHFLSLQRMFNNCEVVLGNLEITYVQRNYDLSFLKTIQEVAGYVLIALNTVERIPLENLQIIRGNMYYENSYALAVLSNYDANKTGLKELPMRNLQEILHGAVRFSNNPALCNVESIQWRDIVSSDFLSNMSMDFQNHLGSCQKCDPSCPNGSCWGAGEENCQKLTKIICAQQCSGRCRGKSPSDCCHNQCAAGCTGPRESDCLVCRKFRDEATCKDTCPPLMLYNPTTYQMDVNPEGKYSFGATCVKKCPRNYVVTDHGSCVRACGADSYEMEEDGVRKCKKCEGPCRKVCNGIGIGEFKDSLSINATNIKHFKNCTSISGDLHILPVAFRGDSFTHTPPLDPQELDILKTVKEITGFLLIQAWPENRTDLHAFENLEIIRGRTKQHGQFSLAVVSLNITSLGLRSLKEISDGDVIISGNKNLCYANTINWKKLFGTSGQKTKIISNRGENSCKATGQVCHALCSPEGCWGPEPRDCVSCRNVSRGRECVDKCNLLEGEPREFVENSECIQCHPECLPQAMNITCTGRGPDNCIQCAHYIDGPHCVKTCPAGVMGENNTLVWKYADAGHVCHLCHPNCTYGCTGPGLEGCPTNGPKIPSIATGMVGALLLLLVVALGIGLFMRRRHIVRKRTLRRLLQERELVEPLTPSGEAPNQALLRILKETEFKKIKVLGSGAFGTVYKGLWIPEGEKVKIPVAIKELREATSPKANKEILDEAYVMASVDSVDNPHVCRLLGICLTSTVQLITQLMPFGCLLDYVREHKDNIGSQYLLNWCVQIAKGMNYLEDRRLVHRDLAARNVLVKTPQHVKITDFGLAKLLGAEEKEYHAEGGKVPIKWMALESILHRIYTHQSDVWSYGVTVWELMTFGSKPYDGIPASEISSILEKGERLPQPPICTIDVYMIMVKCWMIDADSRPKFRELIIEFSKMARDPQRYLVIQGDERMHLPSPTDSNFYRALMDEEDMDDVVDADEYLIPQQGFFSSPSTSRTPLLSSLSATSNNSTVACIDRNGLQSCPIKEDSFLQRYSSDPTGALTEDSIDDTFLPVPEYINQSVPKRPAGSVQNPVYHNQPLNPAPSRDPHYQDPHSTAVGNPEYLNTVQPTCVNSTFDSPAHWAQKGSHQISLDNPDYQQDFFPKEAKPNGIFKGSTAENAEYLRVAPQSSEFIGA
Description: as §1, §2, §3
For assay [5], the target named is HER2 InsYVMA Ba/F3 cell line (Homo sapiens, UniProt P04626, DUP772-775, cells depend on it). The assay is described as follows: Ba/F3 cell proliferation MTS assay, HER2 InsYVMA.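 Also: murine Ba/F3 cells engineered to carry mutant HER2, viability read colorimetrically by MTS after 72 h of exposure, EC50 from sigmoidal non-linear regression of dose response.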 The settings on record: 72 hours.
Chain of HER2 InsYVMA Ba/F3 cell line (P04626 with tags, fused parts or gaps DUP772-775): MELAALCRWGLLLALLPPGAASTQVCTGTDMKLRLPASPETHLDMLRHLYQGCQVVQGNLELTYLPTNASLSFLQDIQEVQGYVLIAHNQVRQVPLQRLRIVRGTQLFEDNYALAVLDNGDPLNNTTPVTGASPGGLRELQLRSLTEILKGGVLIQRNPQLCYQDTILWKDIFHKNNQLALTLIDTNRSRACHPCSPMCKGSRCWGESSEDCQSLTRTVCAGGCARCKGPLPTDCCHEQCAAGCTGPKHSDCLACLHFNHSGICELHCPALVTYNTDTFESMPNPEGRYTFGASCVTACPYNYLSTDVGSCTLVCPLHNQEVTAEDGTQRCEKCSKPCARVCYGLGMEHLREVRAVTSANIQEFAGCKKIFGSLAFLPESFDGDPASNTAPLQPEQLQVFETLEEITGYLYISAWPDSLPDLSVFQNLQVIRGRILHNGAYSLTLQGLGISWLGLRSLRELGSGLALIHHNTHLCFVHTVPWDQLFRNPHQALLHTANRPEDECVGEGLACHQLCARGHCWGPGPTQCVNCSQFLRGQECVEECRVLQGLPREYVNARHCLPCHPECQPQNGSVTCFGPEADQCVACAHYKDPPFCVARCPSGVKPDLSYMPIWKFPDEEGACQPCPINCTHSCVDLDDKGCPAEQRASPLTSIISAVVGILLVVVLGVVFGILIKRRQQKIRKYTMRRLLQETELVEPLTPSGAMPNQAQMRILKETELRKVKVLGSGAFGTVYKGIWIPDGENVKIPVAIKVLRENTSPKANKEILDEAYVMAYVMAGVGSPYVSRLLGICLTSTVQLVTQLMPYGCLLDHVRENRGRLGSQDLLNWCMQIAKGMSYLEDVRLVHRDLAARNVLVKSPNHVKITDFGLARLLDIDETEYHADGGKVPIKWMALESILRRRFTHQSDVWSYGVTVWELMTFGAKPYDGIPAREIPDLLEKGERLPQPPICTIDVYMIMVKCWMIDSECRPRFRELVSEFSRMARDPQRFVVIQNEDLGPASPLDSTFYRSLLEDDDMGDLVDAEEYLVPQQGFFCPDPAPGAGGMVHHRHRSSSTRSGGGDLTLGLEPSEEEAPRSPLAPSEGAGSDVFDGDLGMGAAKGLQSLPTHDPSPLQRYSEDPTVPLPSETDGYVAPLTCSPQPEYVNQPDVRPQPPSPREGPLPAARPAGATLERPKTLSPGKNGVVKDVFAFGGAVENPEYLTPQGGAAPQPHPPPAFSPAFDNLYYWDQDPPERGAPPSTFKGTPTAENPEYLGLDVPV
Description: as §2, §3

Chain of HER2 wild type Ba/F3 cell line (P04626 whole entry, stated change not applied): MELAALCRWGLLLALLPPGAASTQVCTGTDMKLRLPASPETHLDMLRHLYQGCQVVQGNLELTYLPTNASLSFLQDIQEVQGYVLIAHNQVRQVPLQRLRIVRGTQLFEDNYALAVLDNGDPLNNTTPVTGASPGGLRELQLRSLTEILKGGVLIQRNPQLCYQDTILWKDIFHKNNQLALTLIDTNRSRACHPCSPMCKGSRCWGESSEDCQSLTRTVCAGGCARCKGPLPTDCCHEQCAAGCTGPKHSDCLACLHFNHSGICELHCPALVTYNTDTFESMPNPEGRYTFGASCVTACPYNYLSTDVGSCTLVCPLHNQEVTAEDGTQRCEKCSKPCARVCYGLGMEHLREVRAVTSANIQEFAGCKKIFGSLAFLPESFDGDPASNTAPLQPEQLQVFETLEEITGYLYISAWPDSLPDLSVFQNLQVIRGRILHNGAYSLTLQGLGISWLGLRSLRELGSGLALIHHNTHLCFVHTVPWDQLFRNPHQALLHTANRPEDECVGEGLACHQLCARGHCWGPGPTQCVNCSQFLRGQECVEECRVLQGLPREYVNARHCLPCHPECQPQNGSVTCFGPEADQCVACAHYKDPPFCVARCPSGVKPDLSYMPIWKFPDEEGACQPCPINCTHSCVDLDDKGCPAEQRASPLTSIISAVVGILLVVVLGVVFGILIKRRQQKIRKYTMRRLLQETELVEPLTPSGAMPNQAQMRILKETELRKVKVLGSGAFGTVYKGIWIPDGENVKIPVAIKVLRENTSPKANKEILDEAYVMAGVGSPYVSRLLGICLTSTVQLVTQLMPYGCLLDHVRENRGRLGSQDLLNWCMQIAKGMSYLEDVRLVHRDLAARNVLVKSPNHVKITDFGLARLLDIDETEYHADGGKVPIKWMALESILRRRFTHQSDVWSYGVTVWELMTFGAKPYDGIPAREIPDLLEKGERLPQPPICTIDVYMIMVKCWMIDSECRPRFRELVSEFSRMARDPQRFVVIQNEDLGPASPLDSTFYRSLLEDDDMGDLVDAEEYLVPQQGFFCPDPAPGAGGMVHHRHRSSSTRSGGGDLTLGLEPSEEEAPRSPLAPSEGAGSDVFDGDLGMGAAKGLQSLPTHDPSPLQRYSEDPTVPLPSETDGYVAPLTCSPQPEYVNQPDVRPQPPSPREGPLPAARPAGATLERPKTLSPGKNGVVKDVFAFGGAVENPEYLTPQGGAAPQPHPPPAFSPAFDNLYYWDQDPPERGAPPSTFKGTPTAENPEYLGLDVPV

Take `C=CC(=O)Nc1cccc(N(C(=O)OCc2csc3ccccc23)c2ccnc(Nc3ccn(C)n3)n2)c1` [Compound I-18, benzo[b]thiophen-3-ylmethyl (3-acrylamidophenyl)(2-((1-methyl-1H-pyrazol-3-yl)amino)pyrimidin-4-yl)carbamate]: the EC50 in assay [1], in assay [2] and in assay [3] was above 1000 nM each time.
For `C=CC(=O)Nc1cccc(N(C(=O)OCc2cc3ccccc3s2)c2ccnc(Nc3cnn(C)c3)n2)c1` [Compound I-7, benzo[b]thiophen-2-ylmethyl (3-acrylamidophenyl)(2-((1-methyl-1H-pyrazol-4-yl)amino)pyrimidin-4-yl)carbamate], the concentration for a half-maximal effect (EC50) in assay [1] was 100 to 500 nM; in assay [2], below 100 nM; in assay [4], 100 to 500 nM; in assay [3], 100 to 500 nM; in assay [5] it was 500 to 1000 nM.
For the compound `C=CC(=O)Nc1cccc(N(C(=O)OCc2cccc(F)c2)c2ccnc(Nc3cnn(C)c3)n2)c1` [Compound I-3, 3-fluorobenzyl (3-acrylamidophenyl)(2-((1-methyl-1H-pyrazol-4-yl)amino)pyrimidin-4-yl)carbamate], the EC50 in assay [1], in assay [2], in assay [4], in assay [3] and in assay [5] was below 100 nM throughout.
`Cn1cc(Nc2nccc(N(C(=O)OCc3ccc(F)cc3)c3cccc(NC(=O)/C=C/CN4CCC(O)CC4)c3)n2)cn1` [Compound I-25, 4-fluorobenzyl (E)-(3-(4-(4-hydroxypiperidin-1-yl)but-2-enamido)phenyl)(2-((1-methyl-1H-pyrazol-4-yl)amino)pyrimidin-4-yl)carbamate]: the EC50 in assay [1] was 100 to 500 nM; in assay [3], 100 to 500 nM; in assay [5], above 1000 nM.
Consider `C=CC(=O)Nc1cccc(N(C(=O)OCc2ccc(F)cc2)c2ccnc(Nc3cnn(C)c3C(F)(F)F)n2)c1` [Compound I-23, 4-fluorobenzyl (3-acrylamidophenyl)(2-((1-methyl-5-(trifluoromethyl)-1H-pyrazol-4-yl)amino)pyrimidin-4-yl)carbamate], for which the EC50 was below 100 nM in assay [1]; 100 to 500 nM in assay [2]; 100 to 500 nM in assay [4]; below 100 nM in assay [3]; 100 to 500 nM in assay [5].
Regarding `C=CC(=O)Nc1cccc(N(C(=O)OCc2ccc(F)cc2)c2ccnc(Nc3cnn(C)c3)n2)c1` [Compound I-5, 4-fluorobenzyl (3-acrylamidophenyl)(2-((1-methyl-1H-pyrazol-4-yl)amino)pyrimidin-4-yl)carbamate], the EC50 in assay [1], in assay [2], in assay [4], in assay [3] and in assay [5] was below 100 nM throughout.
For `Cn1cc(Nc2nccc(N(C(=O)OCc3ccc(F)cc3)c3cccc(NC(=O)/C=C/CN4CCCCC4)c3)n2)cn1` [Compound I-24, 4-fluorobenzyl (E)-(2-((1-methyl-1H-pyrazol-4-yl)amino)pyrimidin-4-yl)(3-(4-(piperidin-1-yl)but-2-enamido)phenyl)carbamate], the EC50 in assay [1] was below 100 nM; in assay [2] it was 100 to 500 nM; in assay [4], 500 to 1000 nM; in assay [3], below 100 nM; in assay [5] it was below 100 nM.
As to `CN(C)C/C=C/C(=O)Nc1cccc(N(C(=O)OCc2ccc(F)cc2)c2ccnc(Nc3cnn(C)c3)n2)c1` [Compound I-28, 4-fluorobenzyl (E)-(3-(4-(dimethylamino)but-2-enamido)phenyl)(2-((1-methyl-1H-pyrazol-4-yl)amino)pyrimidin-4-yl)carbamate], the EC50 is below 100 nM in assay [1]; 500 to 1000 nM in assay [2]; above 1000 nM in assay [4]; below 100 nM in assay [3]; below 100 nM in assay [5].
As to `C=CC(=O)Nc1cccc(N(C(=O)OCc2ccc(F)cc2)c2ccnc(Nc3cnn(C4CCN(C)C4)c3)n2)c1` (stereo not shown) [Compound I-32, 4-fluorobenzyl (3-acrylamidophenyl)(2-((1-(1-methylpyrrolidin-3-yl)-1H-pyrazol-4-yl)amino)pyrimidin-4-yl)carbamate], the EC50 in assay [1], in assay [2], in assay [4], in assay [3] and in assay [5] was below 100 nM throughout.
Regarding `C=CC(=O)Nc1cccc(N(C(=O)OCc2ccc(F)cc2F)c2ccnc(Nc3cnn(C)c3)n2)c1` [Compound I-29, 2,4-difluorobenzyl (3-acrylamidophenyl)(2-((1-methyl-1H-pyrazol-4-yl)amino)pyrimidin-4-yl)carbamate], the EC50 in assay [1], in assay [2], in assay [4], in assay [3] and in assay [5] was below 100 nM each time.
Take `C=CC(=O)Nc1cccc(N(C(=O)OCc2ccc(F)cc2)c2ccnc(Nc3cnn(CCN4CCOCC4)c3)n2)c1` [Compound I-20, 4-fluorobenzyl (3-acrylamidophenyl)(2-((1-(2-morpholinoethyl)-1H-pyrazol-4-yl)amino)pyrimidin-4-yl)carbamate]: the EC50 was below 100 nM in assay [1]; below 100 nM in assay [2]; 100 to 500 nM in assay [4]; below 100 nM in assay [3]; below 100 nM in assay [5].
In the case of `C=CC(=O)Nc1cccc(N(C(=O)OCc2ccc(F)cc2)c2ccnc(Nc3cnn(C)c3C)n2)c1` [Compound I-22, 4-fluorobenzyl (3-acrylamidophenyl)(2-((1,5-dimethyl-1H-pyrazol-4-yl)amino)pyrimidin-4-yl)carbamate], the EC50 in assay [1], in assay [2], in assay [4], in assay [3] and in assay [5] was below 100 nM each time.
On to `C=CC(=O)Nc1cccc(N(C(=O)OCc2ccc(F)cc2)c2ccnc(Nc3cnn(CC(=O)NC)c3)n2)c1` [Compound I-31, 4-fluorobenzyl (3-acrylamidophenyl)(2-((1-(2-(methylamino)-2-oxoethyl)-1H-pyrazol-4-yl)amino)pyrimidin-4-yl)carbamate], for which the EC50 in assay [1] is below 100 nM; in assay [2], 100 to 500 nM; in assay [4] it was 100 to 500 nM; in assay [3] it was below 100 nM; in assay [5], below 100 nM.
Regarding `Cn1cc(Nc2nccc(N(C(=O)OCc3ccc(F)cc3)c3cccc(NC(=O)/C=C/CN4CCCCCC4)c3)n2)cn1` [Compound I-27, 4-fluorobenzyl (E)-(3-(4-(azepan-1-yl)but-2-enamido)phenyl)(2-((1-methyl-1H-pyrazol-4-yl)amino)pyrimidin-4-yl)carbamate], the EC50 is below 100 nM in assay [1]; 500 to 1000 nM in assay [2]; 500 to 1000 nM in assay [4]; below 100 nM in assay [3]; below 100 nM in assay [5].
With `C=CC(=O)Nc1cccc(N(C(=O)OCc2cc3ccccc3s2)c2ccnc(Nc3ccn(C)n3)n2)c1` [Compound I-6, benzo[b]thiophen-2-ylmethyl (3-acrylamidophenyl)(2-((1-methyl-1H-pyrazol-3-yl)amino)pyrimidin-4-yl)carbamate], the EC50 in assay [1] was 500 to 1000 nM; in assay [2], 100 to 500 nM; in assay [4], 500 to 1000 nM; in assay [3], 500 to 1000 nM; in assay [5], above 1000 nM.
Turning to `C=CC(=O)Nc1cccc(N(C(=O)OCc2ccc(F)cc2)c2ccnc(Nc3ccn(C)n3)n2)c1` [Compound I-4, 4-fluorobenzyl (3-acrylamidophenyl)(2-((1-methyl-1H-pyrazol-3-yl)amino)pyrimidin-4-yl)carbamate], the EC50 in assay [1], in assay [2], in assay [4], in assay [3] and in assay [5] was below 100 nM throughout.
For the compound `Cn1cc(Nc2nccc(N(C(=O)OCc3ccc(F)cc3)c3cccc(NC(=O)/C=C/CN4CCOCC4)c3)n2)cn1` [Compound I-26, 4-fluorobenzyl (E)-(2-((1-methyl-1H-pyrazol-4-yl)amino)pyrimidin-4-yl)(3-(4-morpholinobut-2-enamido)phenyl)carbamate], the EC50 in assay [1] is below 100 nM; in assay [2], 100 to 500 nM; in assay [4], 500 to 1000 nM; in assay [3], below 100 nM; in assay [5], 100 to 500 nM.
Turning to `C=CC(=O)Nc1cccc(N(C(=O)OCc2ccc(F)cc2)c2ccnc(Nc3cnn(C4CCN(C)CC4)c3)n2)c1` [Compound I-30, 4-fluorobenzyl (3-acrylamidophenyl)(2-((1-(1-methylpiperidin-4-yl)-1H-pyrazol-4-yl)amino)pyrimidin-4-yl)carbamate], the EC50 in assay [1], in assay [2], in assay [4], in assay [3] and in assay [5] was below 100 nM in each case.
With `C=CC(=O)Nc1cccc(N(C(=O)OCc2cccc(F)c2)c2ccnc(Nc3ccn(C)n3)n2)c1` [Compound I-2, 3-fluorobenzyl (3-acrylamidophenyl)(2-((1-methyl-1H-pyrazol-3-yl)amino)pyrimidin-4-yl)carbamate], the EC50 in assay [1] was below 100 nM; in assay [2], below 100 nM; in assay [4] it was below 100 nM; in assay [3], below 100 nM; in assay [5] it was 100 to 500 nM.
